1 compound from US11896602B2, “Method for preventing pregnancy” (ESTETRA SRL, priority 2016, dated 2024) can be followed below.

Data set [1] in a line: Triglycerides levels on daily estrogen use. The conditions noted are these: even at higher dosages. Type of data set: in vivo, human. The source says: Besides, the daily use of currently marketed estrogens (ethinylestradiol (EE), E2, E2V, conjugated equine estrogens) is associated with a dose-proportional increase in triglycerides levels. In the human body, high levels of triglycerides in the bloodstream have been linked to atherosclerosis and, by extension, the risk of heart disease and stroke.

A further data set concerns healthy female subjects. The experiment in a line: Example 1 clinical study, one 28-day cycle: dysmenorrhea as treatment-emergent adverse event. Format: in vivo, human. As to the method: During that study, healthy female subjects were treated for one 28-day cycle with either 10 or 20 mg E4 alone (n=10 and 11, respectively) or with a combination of E4 with either Progesterone (P) or Desogestrel (DSG) (n=15 or 16, respectively).
At baseline, occasional dysmenorrhea was reported by 11 subjects (21.2%), and frequent dysmenorrhea was reported by 19 subjects (36.5%). Overall, dysmenorrhea was reported by 25% to 53.3% of the subjects included in this trial.
As shown in Table 3 of Treatment-emergent adverse events (TE-AE) below, reporting of dysmenorrhea during the treatment phase was low in comparison to the incidence recorded at baseline.

A further data set in a line: Terminal half-life. The conditions noted are these: in vivo.
Where [2] appears, read: 10 mg E4, n = 10, one 28-day cycle.
Where [3] appears, read: 20 mg E4 alone (n = 11), with DSG (n = 15) or with P4 (n = 16), one 28-day cycle.

On to `C[C@]12CC[C@@H]3c4ccc(O)cc4CC[C@H]3[C@@H]1[C@@H](O)[C@@H](O)[C@@H]2O` [E4, estetrol], for which the triglycerides levels result in data set [1] was “minimally increases triglycerides levels”. Moreover, in the data set on healthy female subjects (setting [2]), the “Dysmenorrhea TE-AE, % of subjects” value is given as 10.0% and the “Dysmenorrhea TE-AE, number of subjects” value stood at 1. In the data set with healthy female subjects (setting [3]), the “Dysmenorrhea TE-AE, % of subjects” value stood at 9.1% and the “Dysmenorrhea TE-AE, number of subjects” value was found to be 1. In the data set “Terminal half-life”, this compound gave a terminal half-life of 31.7 h.
